According to patent publication US20250340886A1, “INTRACELLULAR KINASE ASSOCIATED WITH RESISTANCE AGAINST ANTI-TUMOUR IMMUNE RESPONSES, AND USES THEREOF” (iOmx Therapeutics AG, priority 2017, published 2025):
Like-named read-outs stand apart in the source and are kept apart here.

Assays:
[1] = tested on: PANC-1 tumour cells; experiment: Luc-CTL assay: PANC-1 cells co-cultured with TIL #1 in the presence of small molecule SIK inhibitor; settings: FIGS. 7A and 7B
[2] = tested on: M579 cells; experiment: real-time live-cell microscopy of TIL209-mediated lysis of shRNA-transduced tumour cells; type: cell-based, human; settings: co-culture with HLA-A2.1+-matched TIL209, compared to shCtrl
Excerpt: FIG. 15: Real-time live cell microscopy showing mean+/−SEM of TIL209-mediated lysis of M579 cells transduced with shCtrl or shSIK3 lentiviral constructs. The graph indicates the area of YOYO-1+ cells/well (um2/well).
SIK3 was stably knocked down in the primary line using SIK3-specific shRNA (shSIK3) or the control non-targeting shRNA sequence (shCtrl). The shRNA sequences targeting SIK3 are set forth in Table A2, and the transduced cell lines were produced briefly as follows: lentiviral transduction particles expressing an shRNA targeting SIK3 mRNA or control shRNA (Sigma-Aldrich) were used for transduction. 5×10^4 […] cells were seeded in a 6 well plate in DMEM 10% FCS 1% P/S. After 24 h, lentiviral particles were added using multiplicity of infection (MOI)=2. 48 h from transduction, cells were put under positive selection using 0.4 μg/ml puromycin. First, the shSIK3 or shCtrl transduced tumour cells were co-cultured with HLA-A2.1+−matched TIL209, and the extent of T cell-mediated killing was monitored using in vitro real-time live-cell microscopy. […] Second, the shSIK3 and shCtrl transduced tumour cells were subcutaneously injected into the left and the right flank, respectively, of NSG immune deficient mice (FIG. 16A), and adoptive cell transfer of TIL209 or PBS injection was applied i.v. once per week (FIG. 16B Scheme).

[3] = tested on: M579 tumours; experiment: in vivo adoptive T cell transfer model, shCtrl or shSIK3-transduced M579 tumours in NSG mice; set-up: species or system mouse
Excerpt: FIG. 16: (A) Schematic representation of the in vivo mouse experiment. Subcutaneous (s.c.) implantation of shCtrl or shSIK3-transduced M579 cells was applied to the left and the right flank of immunodeficient (NOD scid gamma; NSG) mice, respectively. (B) Mice received intravenous (i.v.) injection of TIL209 (n=9) or PBS alone (n=7) at day 3, 10, 17 and 24. (C) Tumour growth curves showing mean+/−SEM of tumour volume (mm3) of shCtrl or shSIK3-engrafted M579 tumours in mice treated with either TIL209 or PBS. Statistical difference was calculated using unpaired one-side Mann-Whitney U-test. (D) Binding of TNF to TNFR1 (TNFR-I) on tumour cells results in downstream signalling cascade that involve caspase 8 cleavage, NF-kappaB nuclear translocation and SIK3 phosphorylation. NF-kappaB nuclear retention is sustained by its acetylation, and HDAC4 deacetylase acts as negative regulator of NF-kappaB. TNF stimulation increases the levels of pLKB1 which in turn results in increased SIK3 activation. […]
SIK3 was stably knocked down in the primary line using SIK3-specific shRNA (shSIK3) or the control non-targeting shRNA sequence (shCtrl). […] First, the shSIK3 or shCtrl transduced tumour cells were co-cultured with HLA-A2.1+−matched TIL209, and the extent of T cell-mediated killing was monitored using in vitro real-time live-cell microscopy. […]

[4] = tested on: PANC-1 tumour cells

**Q.** `COc1cc(Nc2c(C#N)cnc3cc(OCCCN4CCN(C)CC4)c(OC)cc23)c(Cl)cc1Cl` [bosutinib, 3-Quinolinecarbonitrile, 4-[(2,4-dichloro-5-methoxyphenyl)amino]-6-methoxy-7-[3-(4-methyl-1-piperazinyl)propoxy]-, hydrate (1:1)] was tested. Which “sensitivity to TILs and/or TNF-mediated tumour lysis (cytotoxicity to viability ratio in Luc-CTL assay)” value [1] did it give?
**A.** The value was “remarkable increase in sensitivity to TILs and/or TNF-mediated tumour lysis”.

**Q.** “shSIK3: SIK3-specific shRNA, Sigma TRCN0000037452, delivered by lentiviral transduction particles (DNA CCGGGCCAGGCTTTATCTTATCAAACTCGAGTTTGATAAGATAAAGCCTGGCTTTTTG)” was tested. Which T cell-mediated killing [2] did it give?
**A.** Its T cell-mediated killing is “increased killing efficacy”.

**Q.** What about the tumour growth kinetic ([3]; PBS-treated, shCtrl versus shSIK3) of the same molecule?
**A.** Its tumour growth kinetic is “no difference in the tumour growth kinetic”.

**Q.** What about the tumour growth ([3]; s.c. tumours, TIL209 i.v. once per week, compared to shCtrl) of the same molecule?
**A.** The tumour growth was “retardation of tumour growth”.

**Q.** With HG-9-91-01 as the molecule, how does the “sensitivity to TILs and/or TNF-mediated tumour lysis (cytotoxicity to viability ratio in Luc-CTL assay)” value [4] read?
**A.** Its value is “remarkable increase in sensitivity to TILs and/or TNF-mediated tumour lysis”.
